Assay results reported in US20260055066A1, “CRYSTALLINE FORM OF PYRIMIDINE-4-CARBOXAMIDE COMPOUND AND ORAL PHARMACEUTICAL FORMULATION CONTAINING SAME” (J2H BIOTECH INC., priority 2022, published 2026).
Like-named read-outs stand apart in the source and are kept apart here.

Tests used:
[1] = Water solubility / BCS classification of the compound of chemical formula 1; type: physicochemical
[2] = Stability evaluation of the crystalline form of Example 1 (ICH long-term and accelerated storage, HPLC; PXRD); type: physicochemical; details: for Content / Total impurities: HPLC
Description: The stability of the crystalline solid of the compound of chemical formula 1 prepared by Example 1 was evaluated. According to the ICH guideline, the stability test was conducted under long-term storage (25±2° C., 60±5% RH) and accelerated (40±2° C., 75±5% RH) conditions. The analysis was performed using HPLC to evaluate the change in content and the occurrence of impurities, and the results are shown in Table 1 below.
For a BCS Class 2 substance such as the compound of chemical formula 1, it is very important that the crystalline form remains stable under storage conditions. The more insoluble a substance is, the greater the impact of changes in crystallinity on the quality of the final product is. The change in the crystalline form causes changes in hygroscopicity, stability, dissolution, etc.

[3] = Comparative pharmacokinetic test of the formulation in beagle dog, Experimental Example 8; type: in vivo; details: for AUC(0-t) / Cmax / Tmax / half-life / Vd/F / CL/F: beagle, dog, plasma; for Vd/F: read-out: Vz(terminal)/F; for CL/F: CL(inf)/F
Description: By applying the conditions of Preparation Example 10, tablets containing 25, 50, and 100 mg of the crystalline solid of chemical formula 1 as a pharmaceutical raw material were manufactured. An experiment was conducted to analyze the pharmacokinetic characteristics of the manufactured tablets after oral administration to a beagle dog.
The compound of chemical formula 1 was administered orally to a beagle dog as a single dose of 25, 50, and 100 mg tablets/head, orally as a single dose of 25 mg liquid/head, and intravenously as a single dose of 2 mg/kg. Blood samples were collected before (0) and 15, 30 min, 1, 1.5, 2, 4, 6, 8, 10, 16, and 24 hr after administration of the test substance to measure the blood concentration of the compound of chemical formula 1.
The preparation for single oral administration in liquid/head was prepared by homogeneously suspending 275 mg of the compound of chemical formula 1 in 220 ml of pre-prepared 2.5% HP-PCD (sterile water solution) to obtain 1.25 mg/ml. In addition, the preparation for single intravenous administration was prepared by dissolving 300 mg of the compound of chemical formula 1 in 150 ml of pre-prepared 10% HP-PCD (sterile water solution) to obtain 2 mg/ml.

[4] = accelerated 40±2°C, 75±5% RH, 1 months
[5] = accelerated 40±2°C, 75±5% RH, 3 months
[6] = accelerated 40±2°C, 75±5% RH, 6 months
[7] = accelerated 40±2°C, 75±5% RH, Initial
[8] = long-term storage 25±2°C, 60±5% RH, 1 months
[9] = long-term storage 25±2°C, 60±5% RH, 3 months
[10] = long-term storage 25±2°C, 60±5% RH, 6 months
[11] = long-term storage 25±2°C, 60±5% RH, 12 months
[12] = long-term storage 25±2°C, 60±5% RH, Initial
[13] = iv, 2 mg/kg, 2 mg/kg solution (iv), 10% HP-PCD, single dose, beagle dog plasma
[14] = po, 25 mg, 25 mg solution (po), per head, suspended in 2.5% HP-PCD, single dose, beagle dog plasma
[15] = po, 25 mg, 25 mg tablet (po), per head, single dose, beagle dog plasma
[16] = po, 50 mg, 50 mg tablet (po), per head, single dose, beagle dog plasma
[17] = po, 100 mg, 100 mg tablet (po), per head, single dose, beagle dog plasma

solubility ([1]; water): ≤ 1 µg/mL | Content [2, 4]: 99.6% | Total impurities [2, 4]: 0.43% | Content [2, 5]: 100.8% | Total impurities [2, 5]: 0.44% | Content [2, 6]: 100.0% | Total impurities [2, 6]: 0.42% | Content [2, 7]: 99.9% | Total impurities [2, 7]: 0.34% | Content [2, 8]: 99.5% | Total impurities [2, 8]: 0.43% | Content [2, 9]: 99.3% | Total impurities [2, 9]: 0.41% | Content [2, 10]: 100.5% | Total impurities [2, 10]: 0.43% | Content [2, 11]: 99.7% | Total impurities [2, 11]: 0.45% | Content [2, 12]: 99.9% | Total impurities [2, 12]: 0.34% | crystalline form (PXRD) of stored stability samples ([2]; stored 3, 6 and 12 months (12 months long-term only)): the crystalline form did not change | CL(inf)/F ([3]; 2 mg/kg solution (iv), 10% HP-PCD, single dose, beagle dog plasma): 5.5 mL/min/kg | BA ([3]; 25 mg solution (po), per head, single dose, beagle dog): 45.82 % F | BA ([3]; 25 mg tablet (po), per head, single dose, beagle dog): 44.31 % F | average absorption (AUClast) of the tablet administration group relative to the liquid administration group ([3]; 25 mg/head po, beagle dog): 96.7% | BA ([3]; 50 mg tablet (po), per head, single dose, beagle dog): 35.37 % F | BA ([3]; 100 mg tablet (po), per head, single dose, beagle dog): 25.40 % F | AUC(0-t) [3, 13]: 6180 ng·h/mL | Cmax [3, 13]: 1160 ng/mL | Tmax [3, 13]: 0.25 h | half-life [3, 13]: 4.07 h | AUC(0-t) [3, 14]: 3370 ng·h/mL | Cmax [3, 14]: 393 ng/mL | Tmax [3, 14]: 1.5 h | half-life [3, 14]: 6.32 h | Vd/F [3, 14]: 58.5 L | AUC(0-t) [3, 15]: 3260 ng·h/mL | Cmax [3, 15]: 420 ng/mL | Tmax [3, 15]: 2 h | half-life [3, 15]: 4.42 h | Vd/F [3, 15]: 49.4 L | CL/F [3, 14]: 6.9 L/h | CL/F [3, 15]: 8.04 L/h | AUC(0-t) [3, 16]: 5210 ng·h/mL | Cmax [3, 16]: 666 ng/mL | Tmax [3, 16]: 2 h | half-life [3, 16]: 5.29 h | Vd/F [3, 16]: 79.3 L | CL/F [3, 16]: 10.2 L/h | AUC(0-t) [3, 17]: 7480 ng·h/mL | Cmax [3, 17]: 899 ng/mL | Tmax [3, 17]: 1.75 h | half-life [3, 17]: 6.89 h | Vd/F [3, 17]: 119 L | CL/F [3, 17]: 12.8 L/h
Compound: C[C@@H]1CN(c2ccc(S(C)(=O)=O)cc2F)CCN1c1nccc(C(=O)NC2C3CC4CC2CC(O)(C4)C3)n1 (stereo partly drawn) [chemical formula 1, 2-((R)-4-(2-fluoro-4-(methylsulfonyl)phenyl)-2-methylpiperazin-1-yl)-N-((1R,2s,3S,5S,7S)-5-hydroxyadamantan-2-yl)pyrimidine-4-carboxamide]
Biopharmaceutics classification system (BCS) class [1]: Class 2 (high permeability, low solubility) | solubility according to pH [1]: does not have the characteristic of improving solubility according to pH
